Drawing on patent publication US20210221866A1, “PROTEASE-RESISTANT LIPIDATED GLP-1 ANALOGS” (MEDIMMUNE LIMITED, priority 2015, published 2021), this text covers EC50 for 6 compounds.

pEC50: −log10 of the molar value. Read-outs that look alike come from different tables or passages of the source. Numbered stars: 1 amine (or outer) side, 2 acyl side, 3 side chain; on linkers, the order of the positions; unused ones are H or OH. Square brackets hold non-standard residues; d marks the D form. Side chains are listed from the residue outwards. Peptide text beside a SMILES is read from it. * marks the point of attachment. γGlu = O=C(O)[C@H](CCC(=O)[*:2])N[*:1]; Palmitoyl = CCCCCCCCCCCCCCCC(=O)*; αMeF = C[C@](N)(Cc1ccccc1)C(=O)O; αMeK = C[C@](N)(CCCCN)C(=O)O; Lauroyl = CCCCCCCCCCCC(=O)*; αMeS = C[C@](N)(CO)C(=O)O; AEEA = NCCOCCOCC(=O)O; Aib = CC(C)(N)C(=O)O

Type in all cases: cell-based
For assay [1], the target named is T1, human glucose-dependent insulinotropic peptide receptor (GIPR) (Homo sapiens, UniProt P48546).
T1 construct: expressed in transfected cells; host or cells: HEK293 cells or CHO cells
T1 sequence (P48546 22-466): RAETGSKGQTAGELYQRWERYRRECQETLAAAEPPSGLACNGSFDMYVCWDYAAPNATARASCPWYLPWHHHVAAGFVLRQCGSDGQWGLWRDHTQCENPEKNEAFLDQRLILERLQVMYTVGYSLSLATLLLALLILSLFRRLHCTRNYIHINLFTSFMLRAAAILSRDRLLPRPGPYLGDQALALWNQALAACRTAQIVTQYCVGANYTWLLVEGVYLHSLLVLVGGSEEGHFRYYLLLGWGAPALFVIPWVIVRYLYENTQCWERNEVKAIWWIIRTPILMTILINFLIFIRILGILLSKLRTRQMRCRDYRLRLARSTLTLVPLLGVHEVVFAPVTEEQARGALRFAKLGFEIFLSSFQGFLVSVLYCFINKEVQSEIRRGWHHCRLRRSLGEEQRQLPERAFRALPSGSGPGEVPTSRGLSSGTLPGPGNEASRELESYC
Briefly: cAMP assay, human GIPR cells. The conditions noted are these: Table 9, bis-lipidated peptides. How it is done:
(§1) Sample dilutions are made in duplicate.
(§2) A frozen cryo-vial of cells expressing the receptor of interest is thawed rapidly in a water-bath, transferred to pre-warmed assay buffer and spun at 240×g for 5 minutes. Cells are re-suspended in assay buffer at a batch-dependent optimized concentration (e.g. hGCGR cells at 2×10^5 cells/ml, hGLP-1R and hGIPR cells at 1×10^5 cells/ml).
(§3) To this, 5 μL cell suspension is added and the plates incubated at room temperature for 30 minutes.
(§4) cAMP levels are measured using a commercially available cAMP dynamic 2 HTRF kit (Cisbio, Cat #62AM4PEJ), following the two step protocol as per manufacturer's recommendations. In brief; anti-cAMP cryptate (donor fluorophore) and cAMP-d2 (acceptor fluorophore) are made up separately by diluting each 1/20 in conjugate & lysis buffer provided in the kit. 5 μL anti-cAMP cryptate is added to wells of the assay plate, and 5 μL cAMP-d2 is added to wells except non-specific binding (NSB) wells, to which conjugate and lysis buffer are added. […] EC50 values of the synthetic peptides determined in cAMP assays are then determined.
(§5) Data is transformed to % Delta F as described in the manufacturer's guidelines and analyzed by 4-parameter logistic fit to determine EC50 values. […] To compare the balance of activities at the GLP-1R and GCGR between different peptides and across different conditions, these can be correlated, where the EC50's are related to those of comparator peptides.
(In general: Changes in cAMP serve as a functional read-out for many G protein-coupled receptors.)

Assay [2] deals with T2, human glucagon receptor (GCGR) (Homo sapiens, UniProt P47871).
T2 construct: expressed in transfected cells; host or cells: HEK293 cells or CHO cells
Briefly: cAMP assay, human GCGR cells. The conditions noted are these: Table 9, bis-lipidated peptides. On the procedure: as §1, §2, §3, §4, §5

Assay [3] has as its target T3, human GLP-1 receptor (GLP-1R) (Homo sapiens, UniProt P43220).
T3 construct: expressed in transfected cells; host or cells: HEK293 cells or CHO cells
Kind of assay: cAMP assay, human GLP-1R cells. The conditions noted are these: for EC50: mean of n1 and n2; for pEC50: second determination (n2), read-out: Primary assay EC50 GLP-1R n2. An outline of the steps:
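Peptide-stimulated cAMP measured by two-step HTRF after a 30 min room-temperature incubation with receptor-expressing cells (hGLP-1R, hGIPR at 1×10^5 cells/ml; hGCGR at 2×10^5 cells/ml). Duplicate dilutions; EC50 from 4-parameter logistic fit of % Delta F.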

[4] abbreviates: first replicate, read-out: Primary assay EC50 GIP-R (n1).
The mark [5] stands for this setting: second replicate, read-out: Primary assay EC50 GIP-R (n2).
[6] abbreviates: first replicate, read-out: Primary assay EC50 Gluc-R (n1).
Where [7] appears, read: second replicate, read-out: Primary assay EC50 Gluc-R (n2).
[8] abbreviates: cAMP activity, read-out: Mean pM GLP-1R.

T2 sequence (P47871 26-477): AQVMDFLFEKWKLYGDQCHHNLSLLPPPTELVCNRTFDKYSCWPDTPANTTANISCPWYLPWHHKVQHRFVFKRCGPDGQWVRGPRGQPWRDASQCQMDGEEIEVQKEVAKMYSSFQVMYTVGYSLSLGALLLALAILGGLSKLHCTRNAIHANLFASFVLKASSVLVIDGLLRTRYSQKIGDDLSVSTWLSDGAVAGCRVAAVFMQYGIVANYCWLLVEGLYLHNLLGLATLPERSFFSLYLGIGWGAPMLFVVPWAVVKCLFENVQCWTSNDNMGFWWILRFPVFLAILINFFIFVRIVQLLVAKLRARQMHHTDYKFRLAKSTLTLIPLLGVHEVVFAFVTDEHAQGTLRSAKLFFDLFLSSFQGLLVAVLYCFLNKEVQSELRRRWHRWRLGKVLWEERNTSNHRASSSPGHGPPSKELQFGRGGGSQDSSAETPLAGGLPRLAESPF
T3 sequence (P43220 24-463): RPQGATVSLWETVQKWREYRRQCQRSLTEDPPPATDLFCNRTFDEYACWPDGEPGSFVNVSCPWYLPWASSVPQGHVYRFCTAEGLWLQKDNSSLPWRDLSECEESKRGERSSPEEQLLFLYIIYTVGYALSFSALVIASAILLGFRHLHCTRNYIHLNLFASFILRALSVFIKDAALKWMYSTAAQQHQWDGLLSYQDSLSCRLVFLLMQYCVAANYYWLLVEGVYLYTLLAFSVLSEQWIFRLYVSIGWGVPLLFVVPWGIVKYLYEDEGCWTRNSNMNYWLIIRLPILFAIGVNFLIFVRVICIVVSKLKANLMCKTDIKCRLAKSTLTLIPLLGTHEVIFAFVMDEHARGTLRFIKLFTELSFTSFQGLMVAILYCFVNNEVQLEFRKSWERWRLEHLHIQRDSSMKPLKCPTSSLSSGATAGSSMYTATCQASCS

As for `CCCCCCCCCCCC(=O)N[C@@H](CCC(=O)NCCOCCOCC(=O)NCCOCCOCC(=O)NCCCC[C@H](NC(=O)[C@H](CO)NC(=O)[C@](C)(CO)NC(=O)[C@@H](NC(=O)[C@H](CC(=O)O)NC(=O)[C@H](CO)NC(=O)[C@@H](NC(=O)[C@](C)(Cc1ccccc1)NC(=O)[C@H](CO)NC(=O)CNC(=O)[C@H](CCC(=O)O)NC(=O)C(C)(C)NC(=O)[C@@H](N)Cc1c[nH]cn1)[C@@H](C)O)C(C)C)C(=O)N[C@@H](CC(C)C)C(=O)N[C@@H](CCC(=O)O)C(=O)NCC(=O)N[C@@H](CCC(=O)O)C(=O)N[C@@H](C)C(=O)N[C@@H](C)C(=O)N[C@@](C)(CCCCN)C(=O)N[C@@H](CCC(=O)O)C(=O)N[C@@H](Cc1ccccc1)C(=O)N[C@H](C(=O)N[C@@H](CCCCNC(=O)COCCOCCNC(=O)COCCOCCNC(=O)CC[C@H](NC(=O)CCCCCCCCCCC)C(=O)O)C(=O)N[C@@H](Cc1c[nH]c2ccccc12)C(=O)N[C@H](C(=O)N[C@H](C(=O)N[C@@H](CCC(=O)O)C(=O)NCC(=O)NCC(N)=O)C(C)C)C(C)C)[C@@H](C)CC)C(=O)O` [compound 262] (H-H[Aib]EGS[αMeF]TSDV[αMeS]SK([AEEA-AEEA-γGlu-Lauroyl])LEGEAA[αMeK]EFIK([AEEA-AEEA-γGlu-Lauroyl])WVVEGG-NH2; N-terminus assumed), the pEC50 in assay [1] (setting [4]), in assay [1] (setting [5]), in assay [2] (setting [6]) and in assay [2] (setting [7]) was no more than 7.65 each time.

As for `CCCCCCCCCCCCCCCC(=O)N[C@@H](CCC(=O)NCCOCCOCC(=O)NCCOCCOCC(=O)NCCCC[C@H](NC(=O)[C@H](C)NC(=O)[C@@H](NC(=O)[C@](C)(Cc1ccccc1)NC(=O)[C@H](CCC(=O)O)NC(=O)[C@](C)(CCCCN)NC(=O)[C@H](C)NC(=O)[C@H](C)NC(=O)[C@H](CCC(=O)O)NC(=O)CNC(=O)[C@H](CCC(=O)O)NC(=O)[C@H](CC(C)C)NC(=O)[C@H](CCCCNC(=O)COCCOCCNC(=O)COCCOCCNC(=O)CC[C@H](NC(=O)CCCCCCCCCCCCCCC)C(=O)O)NC(=O)[C@H](CO)NC(=O)[C@](C)(CO)NC(=O)[C@@H](NC(=O)[C@H](CC(=O)O)NC(=O)[C@H](CO)NC(=O)[C@@H](NC(=O)[C@](C)(Cc1ccccc1)NC(=O)[C@H](CO)NC(=O)CNC(=O)[C@H](CCC(=O)O)NC(=O)C(C)(C)NC(=O)[C@@H](N)Cc1c[nH]cn1)[C@@H](C)O)C(C)C)[C@@H](C)CC)C(=O)N[C@H](C(=O)N[C@H](C(=O)N[C@@H](CCC(=O)O)C(=O)NCC(=O)NCC(N)=O)C(C)C)C(C)C)C(=O)O` [compound 409] (H-H[Aib]EGS[αMeF]TSDV[αMeS]SK([AEEA-AEEA-γGlu-Palmitoyl])LEGEAA[αMeK]E[αMeF]IAK([AEEA-AEEA-γGlu-Palmitoyl])VVEGG-NH2; N-terminus assumed), the negative logarithm of the EC50 (pEC50) in assay [1] (setting [4]), in assay [1] (setting [5]), in assay [2] (setting [6]) and in assay [2] (setting [7]) was no more than 7.67 throughout.

Take `CCCCCCCCCCCC(=O)N[C@@H](CCC(=O)NCCOCCOCC(=O)NCCOCCOCC(=O)NCCCC[C@H](NC(=O)[C@H](CCC(=O)O)NC(=O)CNC(=O)[C@H](CCC(=O)O)NC(=O)[C@H](CC(C)C)NC(=O)[C@H](CCCCNC(=O)COCCOCCNC(=O)COCCOCCNC(=O)CC[C@H](NC(=O)CCCCCCCCCCC)C(=O)O)NC(=O)[C@H](CO)NC(=O)[C@](C)(CO)NC(=O)[C@@H](NC(=O)[C@H](CC(=O)O)NC(=O)[C@H](CO)NC(=O)[C@@H](NC(=O)[C@](C)(Cc1ccccc1)NC(=O)[C@H](CO)NC(=O)CNC(=O)[C@H](CCC(=O)O)NC(=O)C(C)(C)NC(=O)[C@@H](N)Cc1c[nH]cn1)[C@@H](C)O)C(C)C)C(=O)N[C@@H](C)C(=O)N[C@@](C)(CCCCN)C(=O)N[C@@H](CCC(=O)O)C(=O)N[C@@H](Cc1ccccc1)C(=O)N[C@H](C(=O)N[C@@H](C)C(=O)N[C@@H](Cc1ccccc1)C(=O)N[C@@H](CCCCNC(=O)COCCOCCNC(=O)COCCOCCNC(=O)CC[C@H](NC(=O)CCCCCCCCCCC)C(=O)O)C(=O)N[C@H](C(=O)N[C@@H](CCC(=O)O)C(=O)NCC(=O)NCC(N)=O)C(C)C)[C@@H](C)CC)C(=O)O` [compound 481] (H-H[Aib]EGS[αMeF]TSDV[αMeS]SK([AEEA-AEEA-γGlu-Lauroyl])LEGEK([AEEA-AEEA-γGlu-Lauroyl])A[αMeK]EFIAFK([AEEA-AEEA-γGlu-Lauroyl])VEGG-NH2): in assay [3] (Table 11, tris-lipidated peptides, read-out: Primary assay EC50 Mean pM GLP-1R), the EC50 turned out to be 143 pM.

Take `CC[C@H](C)[C@H](NC(=O)[C@](C)(Cc1ccccc1)NC(=O)[C@H](CCC(=O)O)NC(=O)[C@H](CCCCNC(=O)COCCOCCNC(=O)COCCOCCNC(=O)CC[C@H](NC(=O)CCCCCCCCCCCCCCC(=O)O)C(=O)O)NC(=O)[C@H](C)NC(=O)[C@H](C)NC(=O)[C@H](CCC(=O)O)NC(=O)CNC(=O)[C@H](CCC(=O)O)NC(=O)[C@H](CC(C)C)NC(=O)[C@](C)(Cc1ccccc1)NC(=O)[C@H](CO)NC(=O)[C@](C)(CO)NC(=O)[C@@H](NC(=O)[C@H](CC(=O)O)NC(=O)[C@H](CO)NC(=O)[C@@H](NC(=O)[C@](C)(Cc1ccccc1)NC(=O)[C@H](CO)NC(=O)CNC(=O)[C@H](CCC(=O)O)NC(=O)C(C)(C)NC(=O)[C@@H](N)Cc1c[nH]cn1)[C@@H](C)O)C(C)C)C(=O)N[C@@H](C)C(=O)N[C@@](C)(Cc1ccccc1)C(=O)N[C@H](C(=O)N[C@H](C(=O)N[C@@](C)(CCCCN)C(=O)NCC(=O)NCC(N)=O)C(C)C)C(C)C` [compound 109]: the EC50 in assay [3] (setting [8]) turned out to be 34 pM. In assay [3] (cAMP activity), the pEC50 was 10.46.

For the compound `CCCCCCCCCCCCCCCC(=O)N[C@@H](CCC(=O)NCCCC[C@H](NC(=O)[C@H](CCC(=O)O)NC(=O)[C@H](CC(C)C)NC(=O)[C@](C)(Cc1ccccc1)NC(=O)[C@H](CO)NC(=O)[C@](C)(CO)NC(=O)[C@@H](NC(=O)[C@H](CC(=O)O)NC(=O)[C@H](CO)NC(=O)[C@@H](NC(=O)[C@](C)(Cc1ccccc1)NC(=O)[C@H](CO)NC(=O)CNC(=O)[C@H](CCC(=O)O)NC(=O)C(C)(C)NC(=O)[C@@H](N)Cc1c[nH]cn1)[C@@H](C)O)C(C)C)C(=O)N[C@@H](CCC(=O)O)C(=O)N[C@@H](C)C(=O)N[C@@H](C)C(=O)N[C@@](C)(CCCCN)C(=O)N[C@@H](CCC(=O)O)C(=O)N[C@@](C)(Cc1ccccc1)C(=O)N[C@H](C(=O)N[C@@H](C)C(=O)N[C@@](C)(Cc1ccccc1)C(=O)N[C@H](C(=O)N[C@H](C(=O)N[C@@](C)(CCCCN)C(=O)NCC(=O)NCC(N)=O)C(C)C)C(C)C)[C@@H](C)CC)C(=O)O` [compound 84] (H-H[Aib]EGS[αMeF]TSDV[αMeS]S[αMeF]LEK([γGlu-Palmitoyl])EAA[αMeK]E[αMeF]IA[αMeF]VV[αMeK]GG-NH2; N-terminus assumed), in assay [3] (setting [8]), the EC50 turned out to be 8 pM. The pEC50 in assay [3] (cAMP activity) is 11.09.

With `CC[C@H](C)[C@H](NC(=O)[C@](C)(Cc1ccccc1)NC(=O)[C@H](CCC(=O)O)NC(=O)[C@](C)(CCCCN)NC(=O)[C@H](C)NC(=O)[C@H](C)NC(=O)[C@H](CCC(=O)O)NC(=O)CNC(=O)[C@H](CCC(=O)O)NC(=O)[C@H](CC(C)C)NC(=O)[C@](C)(Cc1ccccc1)NC(=O)[C@H](CO)NC(=O)[C@H](CO)NC(=O)[C@@H](NC(=O)[C@H](CCC(=O)O)NC(=O)[C@H](CO)NC(=O)[C@H](CO)NC(=O)[C@](C)(Cc1ccccc1)NC(=O)[C@H](CO)NC(=O)CNC(=O)[C@H](CCC(=O)O)NC(=O)C(C)(C)NC(=O)[C@@H](N)Cc1c[nH]cn1)C(C)C)C(=O)N[C@@H](C)C(=O)N[C@@](C)(Cc1ccccc1)C(=O)N[C@H](C(=O)N[C@H](C(=O)N[C@@](C)(CCCCN)C(=O)NCC(=O)NCC(N)=O)C(C)C)C(C)C` [compound 9] (H-H[Aib]EGS[αMeF]SSEVSS[αMeF]LEGEAA[αMeK]E[αMeF]IA[αMeF]VV[αMeK]GG-NH2; N-terminus assumed), the EC50 in assay [3] (setting [8]) was determined as 1200 pM.

As a reminder, the pEC50 is the EC50 on a negative log10 scale, so that one unit is a factor of ten.
